Data on 14 compounds can be found in patent US9615577B2, “Herbicidally active cyclic dione compounds, or derivatives therefor, substituted by a phenyl which has an alkynyl-containing substituent” (Syngenta Limited, priority 2012, dated 2017).

Common to all, as to format: in vivo
The subject of assay [1] is Ipomoea hederacea (IPOHE). Briefly: Test 1A glasshouse assay for herbicidal activity, post-emergence. Particulars: 312 h, evaluated after 13 days, read-out: percentage phytotoxicity IPOHE. In a few lines: (§1)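 Test plants grew from seed in standard soil under controlled glasshouse conditions (24/16 °C, 14 h light, 65% humidity) and received an aqueous acetone (50:50) spray with 0.5% Tween 20, either one day after sowing or after eight days. Damage was rated visually as percent phytotoxicity 13 days later.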

Assay [2] deals with Solanum nigrum (SOLNI). The description is as above. The settings on record: 312 h, evaluated after 13 days, read-out: percentage phytotoxicity SOLNI. The gist of the method: as §1
Assay [3] has as its system Brachiaria plantaginea (BRAPL). Briefly: Test 1B glasshouse assay for herbicidal activity, pre-emergence. The settings on record: Urochloa plantaginea, 480 h, 20 DAA, read-out: percentage phytotoxicity BRAPL. In a few lines: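 Seeds sown in standard soil; sprayed after 1 day (pre-emergence) or ~12 days (post-emergence) with active ingredient from a 50 g/liter IF50 formulation diluted in 0.2% v/v X-77 aqueous adjuvant. Glasshouse at 24/18° C. day/night, 16 h light, 65% humidity; visual % phytotoxicity scored 20 DAA (pre) or 15 DAA (post).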

Assay [4] has as its system Ipomoea hederacea (IPOHE). Briefly: Test 1A glasshouse assay for herbicidal activity, pre-emergence. Particulars: 312 h, evaluated after 13 days, read-out: percentage phytotoxicity IPOHE. The gist of the method: as §1
Assay [5] has as its system Solanum nigrum (SOLNI). The assay is described as above. Particulars: 312 h, evaluated after 13 days, read-out: percentage phytotoxicity SOLNI. In a few lines: as §1
The test system of assay [6] is Alopecurus myosuroides (ALOMY). Briefly: Biological Example 2 comparative herbicidal data, post-emergence glasshouse screen. Particulars: 312 h, read-out: Post-emergence herbicidal activities (percentage phytotoxicity) ALOMY; for pest or weed control at 15.625 g/ha: 15.625 g/ha application rate; for pest or weed control at 62.5 g/ha: 62.5 g/ha application rate; for pest or weed control at 8 g/ha: 8 g/ha application rate; for pest or weed control at 30 g/ha: 30 g/ha application rate. In a few lines:
(§2)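 Plants grown 8 days in a glasshouse (24/16°C day/night, 14 h light, 65% humidity) were sprayed with compound in acetone/water (50:50) containing 0.5% Tween 20. They were kept under the same conditions and watered twice daily. Phytotoxicity was scored visually after 13 days (0 = no damage, 100 = total damage).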

Assay [7] concerns Echinochloa crus-galli (ECHCG). The description is as above. Particulars: 312 h, read-out: Post-emergence herbicidal activities (percentage phytotoxicity) ECHCG; for pest or weed control at 15.625 g/ha: 15.625 g/ha application rate; for pest or weed control at 62.5 g/ha: 62.5 g/ha application rate; for pest or weed control at 8 g/ha: 8 g/ha application rate; for pest or weed control at 30 g/ha: 30 g/ha application rate. The gist of the method:
as §2

In the next assay the test system is Setaria faberi (SETFA). The assay is described as above. The settings on record: 312 h, read-out: Post-emergence herbicidal activities (percentage phytotoxicity) SETFA; for pest or weed control at 15.625 g/ha: 15.625 g/ha application rate; for pest or weed control at 62.5 g/ha: 62.5 g/ha application rate; for pest or weed control at 8 g/ha: 8 g/ha application rate; for pest or weed control at 30 g/ha: 30 g/ha application rate. The gist of the method: as §2

In assay [8] the test system is Abutilon theophasti Medik. (ABUTH). Briefly: Test 1A glasshouse assay for herbicidal activity, pre-emergence. Particulars: 312 h, evaluated after 13 days, read-out: percentage phytotoxicity ABUTH. The gist of the method:
as §1

Assay [9] shares this test system. Description: Biological Example 2 comparative herbicidal data, post-emergence glasshouse screen. Particulars: read-out: Post-emergence herbicidal activities (percentage phytotoxicity) ABUTH; for pest or weed control at 8 g/ha: 8 g/ha application rate; for pest or weed control at 30 g/ha: 30 g/ha application rate.
The test system of assay [10] is Amarantus retroflexus (AMARE). Described as above. The settings on record: Amaranthus retroflexus, read-out: Post-emergence herbicidal activities (percentage phytotoxicity) AMARE; for pest or weed control at 8 g/ha: 8 g/ha application rate; for pest or weed control at 30 g/ha: 30 g/ha application rate.

`Cc1cc(C#CCl)cc(C)c1C1C(=O)C2CCC(C2)C1=O` (stereo not shown) [Compound A-6]: the pest or weed control at 62.5 g/ha in assay [1] (62.5 g/ha) is 30%; in the assay with Solanum nigrum (SOLNI) [2] (62.5 g/ha) it was 20%; in assay [6] it was 70%; in assay [7], 100%; in the assay with Setaria faberi (SETFA), 90%. For the same compound, the pest or weed control at 250 g/ha in assay [1] worked out at 20%; in the assay on Solanum nigrum (SOLNI) [2], 20%; in assay [4], 10%; in the assay on Solanum nigrum (SOLNI) [5], 20%. The pest or weed control at 125 g/ha in assay [3] amounted to 80%. Also, the pest or weed control at 15.625 g/ha in assay [6] is 70%; in [7], 90%; with Setaria faberi (SETFA), 90%.

Consider `CC#Cc1cc(Cl)c(C2C(=O)C3CCC(C)(C2=O)C3(C)C)c(OC)c1` (stereo not shown) [Compound A-17], for which, in assay [8], the pest or weed control at 250 g/ha was found to be 70%.

As to `CC#Cc1cc(Cl)c(C2C(=O)C3CCC(C3)C2=O)c(OC)c1` (stereo not shown) [Compound A-12], the pest or weed control at 250 g/ha in assay [3] is 100%; in assay [8] it was 0%. The pest or weed control at 62.5 g/ha in [8] (62.5 g/ha) is 0%. Besides, the pest or weed control at 8 g/ha in [6] worked out at 40%; in assay [7], 90%; in the assay with Setaria faberi (SETFA), 50%; in [9], 10%; in assay [10] it was 0%. The pest or weed control at 30 g/ha in assay [6] came to 90%; in assay [7], 100%; with Setaria faberi (SETFA), 90%; in assay [9], 40%; in assay [10], 0%.

In the case of `CC#Cc1cc(C)c(C2C(=O)CC(CC3CCOCC3)CC2=O)c(C)c1` (stereo not shown) [Compound A-9], the pest or weed control at 250 g/ha in [1] was found to be 50%; in the assay with Solanum nigrum (SOLNI) [2], 80%; in assay [4], 20%; in the assay on Solanum nigrum (SOLNI) [5], 70%. In addition, the pest or weed control at 15.625 g/ha amounted to 80% in assay [6], 100% in assay [7] and 80% in the assay with Setaria faberi (SETFA). Besides, the pest or weed control at 62.5 g/ha in assay [6] came out at 90%; in assay [7], 100%; with Setaria faberi (SETFA), 90%.

For `CC#Cc1cc(Cl)c(C2C(=O)C3CCC(C3)C2=O)c(OCC)c1` (stereo not shown) [Compound A-16], the pest or weed control at 250 g/ha in assay [8] is 70%.

As for `CC#Cc1cc(Cl)c(C2C(=O)CC3(CCOCC3)CC2=O)c(OC)c1` [Compound A-20, 9-(2-Chloro-6-methoxy-4-prop-1-ynyl-phenyl)-3-oxa-spiro[5.5]undecane-8,10-dione], the pest or weed control at 250 g/ha in assay [8] came out at 80%. Besides, the pest or weed control at 8 g/ha in [6] was 90%; in assay [7], 100%; with Setaria faberi (SETFA), 90%; in assay [9] it was 50%; in assay [10], 10%. Besides, the pest or weed control at 30 g/ha came out at 100% in assay [6]; 100% in assay [7]; 100% in the assay with Setaria faberi (SETFA); 80% in [9]; 80% in assay [10].

On to `Cc1cc(C#CCl)cc(C)c1C1C(=O)CC(CC2CCOCC2)CC1=O` (stereo not shown) [Compound A-8], for which the pest or weed control at 250 g/ha in assay [1] was found to be 70%; in the assay on Solanum nigrum (SOLNI) [2], 80%; in assay [4], 30%; in the assay with Solanum nigrum (SOLNI) [5], 70%. Moreover, the pest or weed control at 15.625 g/ha was found to be 70% in assay [6], 90% in [7] and 80% with Setaria faberi (SETFA). The pest or weed control at 62.5 g/ha in [6] stood at 80%; in assay [7], 100%; in the assay on Setaria faberi (SETFA), 90%.

Regarding `CC#Cc1cc(C)c(C2C(=O)CC(c3ccccn3)CC2=O)c(C)c1` (stereo not shown) [Compound A-13], the pest or weed control at 250 g/ha in assay [3] worked out at 90%; in [8] it was 70%. For the same compound, the pest or weed control at 30 g/ha in [8] (30 g/ha) stood at 30%; in assay [6], 70%; in assay [7] it was 80%; in the assay on Setaria faberi (SETFA), 90%; in [9], 40%; in [10], 30%. Further, the pest or weed control at 8 g/ha stood at 60% in assay [6]; 80% in assay [7]; 80% with Setaria faberi (SETFA); 0% in assay [9]; 0% in [10].

For `CC#Cc1cc(C)c(C2C(=O)C3CCC(C3)C2=O)c(C)c1` (stereo not shown) [Compound A-5], the pest or weed control at 500 g/ha in [3] came to 100%. For the same compound, the pest or weed control at 250 g/ha in [8] stood at 0%. For the same compound, the pest or weed control at 8 g/ha in [6] amounted to 50%; in [7] it was 80%; in the assay on Setaria faberi (SETFA) it was 30%; in assay [9], 0%; in [10] it was 0%. Also, the pest or weed control at 30 g/ha in assay [6] came to 80%; in assay [7], 100%; in the assay on Setaria faberi (SETFA), 70%; in assay [9] it was 0%; in assay [10], 10%.

With `CC#Cc1cc(C)c(C2C(=O)CC(CCSC)CC2=O)c(C)c1` (stereo not shown) [Compound A-21, 2-(2,6-Dimethyl-4-prop-1-ynyl-phenyl)-5-(2-methylsulfanyl-ethyl)cyclohexane-1,3-dione], the pest or weed control at 250 g/ha in assay [8] turned out to be 10%. Besides, the pest or weed control at 8 g/ha in assay [6] was determined as 50%; in assay [7], 80%; in the assay with Setaria faberi (SETFA) it was 50%; in assay [9], 70%; in [10], 30%. Further, the pest or weed control at 30 g/ha amounted to 50% in assay [6]; 80% in [7]; 70% in the assay on Setaria faberi (SETFA); 10% in [9]; 80% in assay [10].

In the case of `CC#Cc1cc(C)c(C2=C(OC(=O)OC)CC(c3ccccn3)CC2=O)c(C)c1` (stereo not shown) [Compound A-14], the pest or weed control at 250 g/ha in assay [3] came to 90%; in assay [8], 70%.

For the compound `CC#Cc1cc(C)c(C2C(=O)C3CCC(C3)C2=O)c(OC)c1` (stereo not shown) [Compound A-10], in [3], the pest or weed control at 125 g/ha turned out to be 80%. For the same compound, in [8], the pest or weed control at 250 g/ha was 0%.

As for `CC#Cc1ccc(C2C(=O)C3CCC(C3)C2=O)c(C)c1` (single isomer, unassigned) [Compound A-2], the pest or weed control at 250 g/ha in assay [1] worked out at 30%; with Solanum nigrum (SOLNI) [2] it was 20%; in [4] it was 10%; in the assay on Solanum nigrum (SOLNI) [5], 0%. In addition, the pest or weed control at 500 g/ha in assay [3] turned out to be 100%.

In the case of `CC#Cc1cc(C)c(C2=C(OC(C)=O)CC(c3ccccn3)CC2=O)c(C)c1` (stereo not shown) [Compound A-15], the pest or weed control at 125 g/ha in [3] turned out to be 90%. The pest or weed control at 250 g/ha in assay [8] came to 50%.
